In BindingDB's records for doi:10.1016/0960-894X(96)00067-4 (1996):

Assay: Binding affinity towards sigma receptor in guinea pig brain membrane was determined by using [3H]DTG as the radioligand

SMILES: OC12C3C4CC5C6C4C1C6C(C53)N2Cc1cccc(Br)c1 (stereo unspecified) [11-(3-bromobenzyl)-11-azahexacyclo[5.4.1.02,6.03,10.04,8.09,12]dodecan-1-ol]
- Ki: 109 nM
